According to patent US7439225B2, “Substances K01-B0171 and process for producing the same” (The Kitasato Institute, priority 2003, dated 2008):
Positions of bridges follow the written chain, without caps; N, C: chain ends. Residues, ends and D or L forms follow the SMILES beside them.

Assays:
Solubility in solvent = assay type: physicochemical
[1] = Grouping for acidic, neutral and basic; assay type: physicochemical

CCC(C)C(NC(=O)C(NC(=O)C(CC(N)=O)NC(=O)C(CO)NC(=O)C(Cc1c[nH]cn1)NC(=O)CNC(=O)C(NC(=O)C(Cc1c[nH]c2ccccc12)NC(=O)C1CCC(=O)NCC(=O)NC(CO)C(=O)NC(CCC(N)=O)C(=O)NC(CC(C)C)C(=O)NC(C(C)C)C(=O)NC(Cc2ccc(O)cc2)C(=O)NC(CCCNC(=N)N)C(=O)N1)C(C)C)C(C)C)C(=O)NC(CCCCN)C(=O)NCC(=O)N1CCCC1C(=O)N1CCCC1C(=O)O (stereo not shown) [K01-B0171-C substance] (GSQLVYREWVGHSNVIKGPP-OH; lactam N-8; configuration not given here)
Solubility in solvent (Solubility in solvent): soluble in water, dimethyl sulfoxide (DMSO), methanol and ethanol, and insoluble in acetonitrile, ethyl acetate, chloroform and acetone | Grouping for acidic, neutral and basic [1]: Weak basic substance

CCC(C)C(NC(=O)C(NC(=O)C(CC(N)=O)NC(=O)C(CO)NC(=O)C(Cc1c[nH]cn1)NC(=O)CNC(=O)C(NC(=O)C(Cc1c[nH]c2ccccc12)NC(=O)C1CCC(=O)NCC(=O)NC(CO)C(=O)NC(CCC(N)=O)C(=O)NC(CC(C)C)C(=O)NC(C(C)C)C(=O)NC(Cc2ccc(O)cc2)C(=O)NC(CCCNC(=N)N)C(=O)N1)C(C)C)C(C)C)C(=O)NC(CCCCN)C(=O)N1CCCC1C(=O)O (stereo not shown) [K01-B0171-B substance] (GSQLVYREWVGHSNVIKP-OH; lactam N-8; configuration not given here)
Solubility in solvent (Solubility in solvent): soluble in water, dimethyl sulfoxide (DMSO), methanol and ethanol, and insoluble in acetonitrile, ethyl acetate, chloroform and acetone | Grouping for acidic, neutral and basic [1]: Weak basic substance
